Assay results published in US9180217B2, “Sterilization system and device” (priority 2004, dated 2015).
“Also recorded” adds a separate entry of the source.

Legend:
Bacillus subtilis [1] = test: Pressure vessel NO sterilization of dipped stainless steel strips; assay type: cell-based, Bacillus subtillis var niger 9372; settings: Five Minute Sterilization Cycle, NO gas at atmospheric pressure
Source text: (§1) A glass pressure vessel is connected to a scrubbed NO gas tank source. The pressure vessel is purged five times with Argon gas to eliminate atmospheric oxygen (preventing formation of NO2•) and an additional three purges of NO are used to ensure a pure NO atmosphere and consistent results of bactericidal activity. To test the sterilization method: Bacillus subtillis var niger 9372 is used (after obtaining >80% endospore formation; a standard for ethylene oxide and autoclave test sterilization), as well as organisms commonly found on the epidermis: Staphylococcus aureus (strain 21769) and Staphylococcus epidermides (strain 21977), and the enteric organisms: Klebsiella pneumoniae (strain 21991) and Serratia marcesens (strain 21140). This particular Serratia strain has been found in previous studies to be one of the most resistant bacteria to the bactericidal effects of NO in culture. See, Raulli R et al., Recent Res Devel Microbiol 6: 177-183, 2002, the entire contents of which is incorporated by reference herein.
(§2) The organisms are cultured overnight in brain heart infusion BHI. […]
(§3) The sealed vessel is carefully opened in a laminar flow hood after all the NO had been purged with Argon. […] The samples are observed (digitally photographed) 24 hrs later, placed back in the waterbath and are measured for absorbance 72 hrs later. […]

Serratia marcesens [2] = test: as above; assay type: cell-based, Serratia marcesens (strain 21140); settings: Five Minute Sterilization Cycle, NO gas at atmospheric pressure
Source text: as §1, §2, §3

Staphylococcus aureus = test: as above; assay type: cell-based, Staphylococcus aureus (strain 21769); settings: Five Minute Sterilization Cycle, NO gas at atmospheric pressure
Source text: as §1, §2, §3

[3] = test system: bacterial cocktail containing B. subtilis, S. marcesens, and S. epidermides; test: Sterilization of medical materials (tubing, needle); assay type: cell-based; settings: 15 min Sterilization Cycle
Description: In this Example, the sterilization of medically relevant materials, such as needles and plastic tubing, is tested. Teflon (⅛′ ID), polyethylene (1.77 mm ID), vinyl (0.5 mm ID) tubing and a 30 gauge disposable needle are dipped in a bacterial cocktail containing B. subtilis, S. marcesens, and S. epidermides at about 10^8 total CFU/ml The samples are placed in the sterilization chamber and sealed. In each case, the lumen (the inner open space or cavity within the tubing) of the tubing or the needle contained at least some visually confirmed inoculum. […] The controls for each material reached at least 10^6 total CFU/ml in 24 hrs as determined by ABS595 standardization curves.

[4] = test system: Staphylococcus epidermides; test: Portable system (blood storage container, diazeniumdiolate plus acidic buffer) sterilization of stainless steel strips; assay type: cell-based, S. epidermides; settings: Fifteen Minute Sterilization Cycle; stainless steel strip
Source text: (§4) Similar to Example 1, a portable system is devised using blood storage containers and other laboratory items. In this construct, a blood storage container (Nexell, Irvine, Calif.; Lifecell PL732 plastic tissue culture flask) serves as the sterilization chamber. It has multiple ports, is easily attached to tubing or other chambers, and is easily cut and heat sealed for insertion and removal of contaminated/sterilized samples. The heat seal is strong and holds well at pressure, even though 1 ATM of pressure is used experimentally. Two 60 ml syringes connected to each other and a line of tubing by a three-way stopcock are employed to mix acidic buffer in one syringe with NO-releasing diazeniumdiolate in the other syringe. The tubing is connected to the blood container/sterilization chamber.
(§5) The stopcock is turned so that the acidic buffer can be added to the syringe containing the diazeniumdiolate. The valve is immediately closed to the buffer syringe and opened to the sterilization chamber. The 300 cc sterilization chamber inflates in about 15 seconds. Experiments are performed as described above, except that the devised system is used instead of the pressure vessel.
(§6) The test organisms are cultured overnight in BHI. The cultures contained at least 10^8 CFU/ml (100-fold greater than FDA testing guidelines) based on standardized ABS595 curves for each organism. […]

[5] = test system: bacillus stearothemophilus spores; test: Spore studies in NO and NO2 (BI disks in TYVEK pouches, glass vessel); assay type: cell-based; settings: Exp Time 10 min
Description: The experiments are conducted in glass vessels in which gases can be metered in exact amounts. The tests were conducted using biological indicators made of stainless steel disks inoculated with 10^6 bacillus stearothemophilus spores. The BI disks are heat-sealed in individual TYVEK sterilization pouches and placed in a glass vessel. The vessel is filled with various mixtures of gases following specific protocols for the order and timing of gas introduction.
In one protocol, the glass vessel is evacuated to 3″ Hg absolute. Either NO or NO2, as the sterilant gas, is added in an amount that corresponds to a 5% concentration (by volume) when the vessel is completely filled with sterilant gas and diluent gas. After 5 minutes, either air or nitrogen was added to the vessel until atmospheric pressure is reached. The BI is exposed to the air or nitrogen for 10 minutes. Thereafter, the BIs, in their pouches, are removed from the vessel and taken to a microbiological hood. The biological indicators are removed from the pouches and placed in tubes with sterile tryptic soy broth, incubated at from about 55 to about 60° C., and monitored for growth.

[6] = test system: Bacillus stearothemophilus spores (ATCC 7953); test: Spore studies in lumens (wire biological indicators, resistometer); assay type: cell-based; settings: 5 min, 23° C., NO then air
Description: The ability of the nitrogen oxide gases to penetrate an inner open space or cavity within a tube (i.e., a lumen) and inactivate spores in the lumen is evaluated. The spores used are those that are most resistant to the nitrogen oxide gases.
The following configuration of lumens are tested:
(a) 17″ stainless (SS) tubes having a 2.5 mm inner diameter (I.D.), bent in “U” shape
(b) 60″ polyethylene (PE) tube having a 4.5 mm ID, coiled and in Tyvek pouch
(c) 60″ PE tube having a 4.5 mm ID and a 1.5 mm outer diameter (O.D.) PEEK tube inside, coiled and in Tyvek pouch
Wire biological indicators are inoculated with 10^6 Bacillus stearothemophilus spores (ATCC 7953), (Raven Lot 3W67583) and placed at the center point of the tube in each of these configurations. The coiled polyethylene tubes were then heat-sealed in a TYVEK sterilization pouch.
Separately, each of the lumen samples are tested. The stainless steel tube (triplicate samples: SS-1, SS-2, and SS-3), the polyethylene tube, and the polyethylene tube with the PEEK catheter were each placed in a resistometer and exposed to the following gas cycle for 5 minutes at 23° C. This gas cycle is defined as follows: […]
The sterilization chamber/resistometer is evacuated and held at vacuum for 2 minutes. NO gas is then added to the sterilization chamber until the vacuum is decreased by 1″Hg. This condition is maintained for 2 minutes. Are is then added until the chamber reaches atmospheric pressure and the condition is held for 5 minutes.

[7] = test system: Bacillus subtilis (spore); test: Portable system (blood storage container, diazeniumdiolate plus acidic buffer) sterilization of stainless steel strips; assay type: cell-based, B. subtilis (endosporulated); settings: Fifteen Minute Sterilization Cycle; stainless steel strip
Source text: as §4, §5, §6

[8] = test system: spores (Biological Indicator manufactured by Raven); test: Humidity effects on spores (Raven Biological Indicator in Tyvek sachets, 300 ml glass vessels); assay type: cell-based; settings: 5% nitrogen oxide, Diluent Air
Description: This Example illustrates the effects of humidity on the sterilization of spores using both NO and NO2/N2O4 as sterilizing gases. Tests are conducted in 300 ml glass vessels.
The vessels are allowed to stand for 30 minutes, Two Tyvek sachets, each containing a Biological Indicator manufactured by Raven (product number 3367771 3-6100ST) are placed in each vessel. The vessels are purged as follows: The vessel is evacuated to 8″Hg absolute. The Vessel is re-filled with air to atmospheric pressure. Evacuation/filling is repeated two more times. The vessel is evacuated to 8″Hg absolute. Sterilizing gases are introduced into the vessel. Compressed air (9% Relative Humidity) is added until the vessel reaches atmospheric pressure. The sachets are allowed to remain in the sterilizing environments for either five or ten 10 minutes before being removed and the BI is cultured in 4 milliliters of Tryptic Soy Broth for 14 days at 55-60° C.

cocktail of bacteria = test: Humidity effects on live bacteria, sealed and unsealed dry samples; assay type: cell-based; settings: 15 min Sterilization cycle, 1 atmosphere
Source text: This Example tests several humidifying paradigms and the ability to sterilize through a gas sterilization seal pouch. A cocktail of bacteria is used, grown to about 10^8 CFU/ml and mixed in equal volume. Stainless steel strips are dipped, allowed to dry, and subject to one of three methods: A, B and C. Method A samples are wrapped in a moist Kimwipe. Method B samples are left dry. Method C samples are dried and sealed in a V. Mueller™ Dual Peel Seal Pouch, which is designed for gas and autoclave sterilizations. Samples from methods B and C are placed in the sterilization chamber with a moist Kimwipe. Placement in the chamber is done so as to insure maximal separation of the Kimwipe and the sample(s). The chamber is re-sealed carefully so as not to disturb the positioning of the samples relative to the Kimwipe. Each sample is exposed to a 15 minute sterilization cycle at 1 atmosphere, removed under sterile conditions, and the samples are placed in BHI media as described above. Experimental samples are exposed to NO gas while control samples are handled identically, except that the chamber is gassed with nitrogen. All controls reached greater than 10^6 total CFU/ml in 24 hrs as determined by ABS595 standardization curves.

Klebsiella pneumoniae = test: Pressure vessel NO sterilization of dipped stainless steel strips; assay type: cell-based, Klebsiella pneumoniae (strain 21991); settings: Five Minute Sterilization Cycle, NO gas at atmospheric pressure
Source text: as §1, §2, §3

[9] = test system: sporulated B. subtilis var. niger; test: Sterilization of contaminated stainless steel strips with varying quantities of delivered NO; assay type: cell-based; settings: 5%, 2.5% and 1% NO, five minutes, culture in LB 48 hours then plating
Source text: A blood storage container (Nexell, Irvine, Calif.; Lifecell PL732 plastic tissue culture flask) is used as the sterilization chamber. Strips of stainless steel are dipped in 10^6 CFU/ml sporulated B. subtilis var. niger (as determined by ABS595 standardization curves). The strips are allowed to air dry, placed in the sterilization chamber, and then the sterilization chamber is heat sealed. The sterilization chamber is evacuated using a syringe and controlling air flow with the sterilization chamber valves. A known quantity of air is added to the vessel using a graduated syringe.
An NO-generating donor compound is placed in a 7 cc gas generation chamber. The gas generation chamber is attached to the storage container through luer lock connectors. The liquid activator, 3.0N HCl is added to the gas generation chamber and the generated gas is allowed to flow into the sterilization chamber. After a brief generation period, the gas is sealed in the sterilization chamber using a compression valve.
Varying quantities of NO gas, namely 10%, 5%, 2.5% and 1% NO, are tested for their efficacy in the sterilization chamber. The quantity (%) of NO gas generated and added to the sterilization chamber is calculated from the number of moles of NO required to be generated to result in the desired percentage of NO. […]

[10] = test system: Staphylococcus epidermides; test: Pressure vessel NO sterilization of dipped stainless steel strips; assay type: cell-based, Staphylococcus epidermides (strain 21977); settings: Five Minute Sterilization Cycle, NO gas at atmospheric pressure
Source text: as §1, §2, §3

Serratia marcesens [11] = test: Portable system (blood storage container, diazeniumdiolate plus acidic buffer) sterilization of stainless steel strips; assay type: cell-based, S. marcesens; settings: Fifteen Minute Sterilization Cycle; stainless steel strip
Source text: as §4, §5, §6

Bacillus subtilis [12] = test: as above; assay type: cell-based, B. subtilis (vegetative); settings: Fifteen Minute Sterilization Cycle; stainless steel strip
Source text: as §4, §5, §6

[N]=O [NO, nitric oxide]
trials showing no bacterial growth (Killed) (Bacillus subtilis [1]): 3/3 Killed | trials showing no bacterial growth (Killed) (Serratia marcesens [2]): 3/3 Killed | trials showing no bacterial growth (Killed) (Staphylococcus aureus): 3/3 Killed | trials Killed ([3]; Disposable Needle 30 gauge): 2/2 Killed | trials Killed ([3]; Polyethylene Tubing 1.77 mm ID): 2/2 Killed | trials Killed ([3]; Teflon Tubing 1/8′ ID): 2/2 Killed | trials Killed ([3]; Vinyl Tubing 0.5 mm ID): 2/2 Killed | trials Killed [4]: 3/3 Killed | spore condition (Dead/Live) ([5]; 5% in Air with Humidity Chip): Dead | spore condition (Dead/Live) after 14 days of incubation ([6]; (a) SS-1, 17″ stainless tube 2.5 mm I.D.): Dead | spore condition (Dead/Live) after 14 days of incubation ([6]; (a) SS-2, 17″ stainless tube 2.5 mm I.D.): Dead | spore condition (Dead/Live) after 14 days of incubation ([6]; (a) SS-3, 17″ stainless tube 2.5 mm I.D.): Dead | spore condition (Dead/Live) after 14 days of incubation ([6]; (b) PE Sheath, 60″ polyethylene tube 4.5 mm ID in Tyvek pouch): Dead | spore condition (Dead/Live) after 14 days of incubation ([6]; (c) PE Sheath with Catheter (PEEK tube inside) in Tyvek pouch): Dead | trials Killed [7]: 2/2 | Spore Condition in 14 Days ([8]; Exposure 5 Minutes, Dry): Alive | Spore Condition in 14 Days ([8]; Exposure 5 Minutes, Humid): Dead | Spore Condition in 14 Days ([8]; Exposure 10 Minutes, Dry): Alive | Spore Condition in 14 Days ([8]; Exposure 10 Minutes, Humid): Dead | trials Killed (cocktail of bacteria; Method A, sample wrapped in Moist Kimwipe): Killed | trials Killed (cocktail of bacteria; Method B, Dry sample): sterilized dry samples; also recorded: Killed | trials Killed (cocktail of bacteria; Method C, Dry, Sealed in Dual Peel Seal Pouch): Killed | trials showing no bacterial growth (Killed) (Klebsiella pneumoniae): 3/3 Killed | killing 10^6 CFU/ml sporulated B. subtilis var. niger [9]: effective at killing | trials showing no bacterial growth (Killed) [10]: 3/3 Killed | trials Killed (Serratia marcesens [11]): 3/3 Killed | trials Killed (Bacillus subtilis [12]): 2/2

[O]N=O [NO2, nitrogen dioxide]
spore condition (Dead/Live) ([5]; 5% in Air with Humidity Chip): Dead | spore condition (Dead/Live) ([5]; 5% in N2 with Humidity Chip): Dead
